Assay results taken from publication PMC3906059, “Activation and Inhibition of TMEM16A Calcium-Activated Chloride Channels” (PLoS ONE, 2014).
Several values for one entry are separate records, joined by “and”; a condition that tells them apart may be missing. Equal entries are not always repeated. Entries after “also recorded” stand apart in the source; their conditions may differ.

Key:
TMEM16A (ANO1) [1] = target: T1, TMEM16A (ANO1) (Mus musculus, UniProt Q8BHY3); experiment: Activation of ANO1 current by divalent cations, excised inside-out patch with fast solution exchange; type: cell-based; settings: for maximal ANO1 current activated by saturating divalent cation compared with Is induced by saturating [Ca^2+]: Is induced by 20 µM Ca^2+, ±40 mV; for Hill coefficient (n) of dose-response activation curve / EC50: values covering +40 and −40 mV; for EC50: read-out: K1/2 of ANO1 activation
T1 construct: We subcloned the coding region of the cDNA into pEGFP-N3 vector; expressed in transfected cells; host or cells: HEK293 cells
T1 sequence (Q8BHY3 1-956 isoform Q8BHY3-2): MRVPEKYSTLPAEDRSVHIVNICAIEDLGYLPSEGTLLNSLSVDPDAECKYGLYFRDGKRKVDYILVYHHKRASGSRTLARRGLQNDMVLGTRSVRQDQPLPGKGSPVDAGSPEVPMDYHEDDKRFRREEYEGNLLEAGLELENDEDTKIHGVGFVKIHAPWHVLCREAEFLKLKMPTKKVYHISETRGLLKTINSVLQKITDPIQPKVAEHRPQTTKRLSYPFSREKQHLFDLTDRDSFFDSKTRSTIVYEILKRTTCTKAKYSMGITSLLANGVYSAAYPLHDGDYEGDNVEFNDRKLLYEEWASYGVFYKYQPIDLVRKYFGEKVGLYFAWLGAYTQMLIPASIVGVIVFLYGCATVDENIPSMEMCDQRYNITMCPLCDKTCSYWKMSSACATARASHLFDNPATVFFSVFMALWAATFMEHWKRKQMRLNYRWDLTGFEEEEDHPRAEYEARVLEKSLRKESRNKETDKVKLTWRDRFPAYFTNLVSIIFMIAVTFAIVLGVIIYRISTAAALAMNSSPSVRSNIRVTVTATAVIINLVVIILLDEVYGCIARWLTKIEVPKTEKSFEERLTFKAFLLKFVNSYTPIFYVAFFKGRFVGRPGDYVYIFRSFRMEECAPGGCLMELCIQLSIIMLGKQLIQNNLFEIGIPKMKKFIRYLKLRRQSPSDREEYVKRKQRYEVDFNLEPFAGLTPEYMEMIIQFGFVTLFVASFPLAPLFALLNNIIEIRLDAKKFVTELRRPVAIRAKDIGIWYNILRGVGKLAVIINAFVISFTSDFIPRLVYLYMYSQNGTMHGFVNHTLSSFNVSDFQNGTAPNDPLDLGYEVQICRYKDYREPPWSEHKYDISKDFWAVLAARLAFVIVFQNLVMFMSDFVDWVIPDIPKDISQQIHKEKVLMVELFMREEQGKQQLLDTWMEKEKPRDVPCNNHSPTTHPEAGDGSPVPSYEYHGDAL
Description: (§1) The mouse TMEM16A cDNA (NCBI reference sequence: NM_001242349.1) encoding ANO1 CaCC was a generous gift from Dr. Lily Jan. We subcloned the coding region of the cDNA into pEGFP-N3 vector (Clontech Laboratories, Inc.), resulting in a construct in which an enhanced green fluorescent protein (eGFP) was attached to the C-terminus of the ANO1 protein. The sequence was confirmed by commercially-available DNA sequencing service. This eGFP-attached ANO1 cDNA construct was used for channel expression throughout the study. The cDNA was transfected into human embryonic kidney (HEK) 293 cells using lipofectamine transfection methods, [42], [43]. A fluorescent light source and a GFP filter set (Chroma Technology Co.) in the DM IRB inverted microscope (Leica Microsystems) were used to identify transfected cells expressing channel proteins. Electrophysiological experiments were performed ∼24 to 72 hours after transfection.
All chemicals were reagent grade. Regular salts (such as NaCl, NaOH, CaCl2, SrCl2, BaCl2, MgCl2 or sodium salts of various anions) were purchased from Fisher Chemicals (Fair Lawn, NJ), J. T. Baker (Phillipsburg, NJ) or Sigma Chemicals Co. (St. Louis, MO). EGTA, HEPES, and NFA were from Sigma Chemicals Co. Excised inside-out patch-clamp recordings were performed throughout the study. The extracellular (pipette) solution in all experiments contained: 140 mM NaCl, 10 mM HEPES, 0.1 mM EGTA, pH = 7.4. The regular intracellular solution contained 10 mM HEPES and 140 mM sodium salt of Cl^− or other anions. Various concentrations of divalent cations were made by adding certain total concentrations of divalent cations (Cl^− salts) into the solution containing a defined concentration of EGTA. We defined the pipette solution as the “zero-Ca^2+” solution. A solution containing a saturating [Ca^2+] was made by adding 0.12 mM total [Ca^2+] into the aforementioned zero-Ca^2+ solution, resulting in a solution containing ∼20 µM free [Ca^2+]. For making non-saturating [Ca^2+] solutions, the solutions included 1 mM EGTA. To make solutions containing Sr^2+ and Ba^2+, only 0.1 mM EGTA was used. The pH of all solutions was adjusted to 7.4.
Because of weak Mg^2+-EGTA binding, we referred the total [Mg^2+] as the free [Mg^2+]. The free [Ca^2+], [Sr^2+], and [Ba^2+] were calculated using the MaxChelator program (Ver1.2) kindly provided by Chris Patton from the Stanford University. This program was developed based on the binding constants available in the National Institute of Standard and Technology (NIST) between EGTA and these three divalent cations. Table S1, Table S2, and Table S3 list respectively the calculated free [Ca^2+], [Sr^2+], and [Ba^2+] used in this study. All added divalent cations were Cl^− salts. […] For example, in a solution containing 5 mM, 10 mM or 30 mM MgCl2, only 130 mM, 120 mM or 80 mM of NaCl, respectively, were added to the solution.
The patch-clamp recording pipettes were fabricated from borosilicate glass capillaries (World Precision Instruments) using PP830 electrode puller (Narishige International). When filled with the pipette solution, the electrode resistance was ∼1.5–3 MΩ. The experiments were carried out at room temperature (20–23°C) using the Axopatch 200B amplifier controlled by the Digidata I/O converter and the pClamp9 software (Axon Instruments/Molecular Devices).
Solution exchange was achieved using the SF-77 solution exchanger (Warner Instruments). After the excised inside-out patch mode was established, the tip of the patch pipette was positioned at the exit of the solution-delivery pipes of the SF-77 solution exchanger. The switch of solution pipes was controlled by a digital signal delivered from the Digidata 1320 digitizing board. […]

TMEM16A (ANO1) [2] = target: T1, TMEM16A (ANO1); experiment: Anion permeability of the ANO1 pore, Erev under bi-ionic conditions; type: cell-based; settings: for permeability ratio PX/PCl: Ca^2+-activated current, calculated from Erev after junction potential correction; for zero current potential of I–V curve: example ramp −80 to +80 mV, [Ca^2+] = 20 µM, intracellular salt 140 mM (NaHCO3 130 mM + 10 mM NaCl)
Description: as §1
The anion permeability of the ANO1 pore was examined under bi-ionic conditions in which the extracellular solution contained 140 mM NaCl (the zero-Ca^2+ solution). The intracellular solution contained 140 mM sodium salts of various anions with the exception of the HCO3 ^− experiment in which the solution contained 130 mM NaHCO3 and 10 mM NaCl. In all intracellular solutions for the bi-ionic experiments, 0.1 mM EGTA and 0.12 mM total Ca^2+ or Sr^2+ were added to the solution to activate the ANO1 channel (Free [Ca^2+] or [Sr^2+] were saturating concentrations). Erev of the open channel was measured in two ways. First, under voltage-clamp configuration, a 3-sec voltage ramp from −80 mV to +80 mV was applied and the Erev of the leak-subtracted I-V curve was then determined (see Fig. 5 A & B). The second method employed the current-clamp (I = 0) mode in which the patch was exposed to divalent cations throughout the recording (Fig. 5 C and Fig. 6 A & C). When the intracellular solution contained the same concentration of Cl^− as that in the extracellular side, the recorded voltage (EI = 0) was normally close to 0 mV. When the intracellular solution was replaced by the one containing other anions, the value of EI = 0 changed to a new value corresponding to the Erev of the new ionic condition. It is important to point out that the measurement of Erev can be imprecise if the amplitude of the ANO1 current is not within a proper range. Therefore, in permeability ratio measurements we only used the data obtained from patches with a maximal current in the range of 100 pA–1000 pA at +40 mV. All the presented Erev values (and the recording traces for measuring Erev) are not corrected for junction potential difference between solutions because the junction potentials are relatively small. However, the reported permeability ratios were calculated based on the junction potential-corrected Erev. The correction for the junction potential results in very small changes in the calculated permeability ratios.
The permeability ratios of various anions versus Cl^− (PX/PCl, where X represents various anions) were calculated using the Erev obtained from bi-ionic experiments according to the following equation (eq. 3), PX/PCl = exp[Erev/(RT/F)], where R, T, and F are the gas constant, absolute temperature, and Faraday constant, respectively. Comparing the difference between Erev’s of the Ca^2+- and Sr^2+-activated current was performed using the pair t test at the significant level of 0.05.

CaCC of Xenopus oocytes = system: CaCC of Xenopus oocytes; design: method as in PMID 11279188; settings: cited from earlier work
[3] = Ca^2+-activated current (20 µM), 140 mM extracellular NaCl, anion as intracellular sodium salt 140 mM (HCO3: 130 mM NaHCO3 + 10 mM NaCl), without junction potential correction, averaged
[4] = current activated by 20 µM Sr^2+, current clamp (I = 0), without correcting for junction potential

| Compound | Erev (bi-ionic potential) (TMEM16A (ANO1) [2]; [3]) [mV] | permeability ratio PX/PCl (TMEM16A (ANO1) [2]) | Erev (bi-ionic potential) (TMEM16A (ANO1) [2]; [4]) [mV] | zero current potential of I–V curve (TMEM16A (ANO1) [2]; 140 mM extracellular NaCl) | further results |
| --- | --- | --- | --- | --- | --- |
| [Cl-].[Cl-].[Sr+2] [Sr^2+] |  |  |  |  | maximal ANO1 current activated by saturating divalent cation compared with Is induced by saturating [Ca^2+] (TMEM16A (ANO1) [1]): can activate the same maximal current; also recorded: activated the channel to the same maximal current level; Hill coefficient (n) of dose-response activation curve (TMEM16A (ANO1) [1]): 2–2.6 and ~2; EC50 (TMEM16A (ANO1) [1]): 5 to 10 µM and ~5 µM; difference of Erev between channels activated by Sr^2+ and Ca^2+ (TMEM16A (ANO1) [2]): 1–2 mV |
| [I-].[Na+] [I^−] | 35.9±3.3 | ~4.1 | 33.4±0.3 | +39 mV | Erev (bi-ionic potential) (TMEM16A (ANO1) [2]; Ca^2+-activated current (20 µM), 140 mM extracellular NaCl, anion as intracellular sodium salt 140 mM (HCO3: 130 mM NaHCO3 + 10 mM NaCl), without junction potential correction, averaged, listed as I^–): ~+35 mV |
| O=C(O)c1c2ccccc2cc2ccccc12 [A9C] |  |  |  |  | sideness of the block (CaCC of Xenopus oocytes): from the extracellular side; voltage dependence of inhibition (CaCC of Xenopus oocytes): voltage dependent |
| [Br-].[Na+] [Br^−] | 18.0±1.2 | ~2.1 | 16.2±0.4 | +17 mV |  |
| O=[N+]([O-])[O-].[Na+] [NO3 ^−] | 32.9±1.1 | ~3.5 | 31.3±0.5 | +33 mV |  |
| O=C(O)c1ccccc1Nc1ccccc1 [DPC] |  |  |  |  | sideness of the block (CaCC of Xenopus oocytes): from the extracellular side; voltage dependence of inhibition (CaCC of Xenopus oocytes): voltage dependent |
| N#C[S-].[Na+] [SCN^−] | 62.0±2.4 | ~11 | 59.4±0.8 | +64 mV | Erev (bi-ionic potential) (TMEM16A (ANO1) [2]; Ca^2+-activated current (20 µM), 140 mM extracellular NaCl, anion as intracellular sodium salt 140 mM (HCO3: 130 mM NaHCO3 + 10 mM NaCl), without junction potential correction, averaged, listed as SCN^–): ~+60 mV; voltage shift induced by SCN^− in Sr^2+ smaller than that in Ca^2+ by (TMEM16A (ANO1) [2]; same patch, 140 mM intracellular NaSCN, 4 patches): ~1 mV |
| [Ba+2].[Cl-].[Cl-] [Ba^2+] |  |  |  |  | fraction of maximal current activated (TMEM16A (ANO1) [1]; 404 µM [Ba^2+]): 70–80%; maximal ANO1 current activated by saturating divalent cation compared with Is induced by saturating [Ca^2+] (TMEM16A (ANO1) [1]): can activate the same maximal current; also recorded: activated the channel to the same maximal current level; Hill coefficient (n) of dose-response activation curve (TMEM16A (ANO1) [1]): 1.1–1.4 and 1–1.5; EC50 (TMEM16A (ANO1) [1]): 130 to 230 µM and 100 to 200 µM |
| O=S(=O)(O)c1cc(N=C=S)ccc1C=Cc1ccc(N=C=S)cc1S(=O)(=O)O [DIDS] |  |  |  |  | voltage dependence of inhibition (CaCC of Xenopus oocytes): voltage dependent |
| N[C@@H](CCC(=O)O)C(=O)[O-].[Na+] [glutamate, Na-glutamate] | < −80 |  |  |  |  |
| O=C([O-])O.[Na+] [HCO3 ^−] | −27.6±2.4 | ~0.3 |  | -27 mV |  |
